In US9156853B2, “AKT inhibitor compounds for treatment of cancer” (ALMAC DISCOVERY LIMITED, priority 2012, dated 2015):
Counter-ions that a name gives are not always drawn.

Legend:
[1] = test system: pAKT (Ser473) in PC3 cells; assay: Inhibition of pAKT in PC3 cells; type: cell-based; details: Homo sapiens, PC-3, 24 h incubation, read-out: inhibition of pAKT in PC3 cell lines, IC50
Description: Analysis of Compound Effects on AKT Signalling Pathways: Inhibition of pAKT in PC3 Cells
PC3 cells were seeded overnight in 96 well plates followed by serum starvation for 4 h. Increasing concentrations of AKT inhibitor, in complete medium (RPMI 1640), were added to the cells and incubated for a further 24 h.
The cells were fixed in paraformaldehyde, permeabilised and blocked in BSA, followed by incubation with pAKT (Ser473) and total AKT antibody overnight (R&D Systems). Secondary antibody mixture was added, followed by a combination of fluorescent substrates added for a final incubation.
Fluorescent intensities for each antibody were read at 540/600 nm and 360/450 nm respectively on a Synergy 4 plate reader. The percentage change in fluorescent intensity was plotted against log concentration of inhibitor; to generate IC50 values (GraphPad Prism).

AKT3 = target: T1, AKT3 (Homo sapiens, UniProt Q9Y243); assay: AKT Kinase Assay (IMAP fluorescent polarisation), AKT3 isoform; type: biochemical; details: for IC50: activated AKT3, FAM Crosstide substrate; for potency against AKT3 compared with the comparator compound: compared with the non-hydroxylated Compound A, F or L
T1 construct: purchased SignalChem
T1 sequence (Q9Y243 whole entry, canonical isoform): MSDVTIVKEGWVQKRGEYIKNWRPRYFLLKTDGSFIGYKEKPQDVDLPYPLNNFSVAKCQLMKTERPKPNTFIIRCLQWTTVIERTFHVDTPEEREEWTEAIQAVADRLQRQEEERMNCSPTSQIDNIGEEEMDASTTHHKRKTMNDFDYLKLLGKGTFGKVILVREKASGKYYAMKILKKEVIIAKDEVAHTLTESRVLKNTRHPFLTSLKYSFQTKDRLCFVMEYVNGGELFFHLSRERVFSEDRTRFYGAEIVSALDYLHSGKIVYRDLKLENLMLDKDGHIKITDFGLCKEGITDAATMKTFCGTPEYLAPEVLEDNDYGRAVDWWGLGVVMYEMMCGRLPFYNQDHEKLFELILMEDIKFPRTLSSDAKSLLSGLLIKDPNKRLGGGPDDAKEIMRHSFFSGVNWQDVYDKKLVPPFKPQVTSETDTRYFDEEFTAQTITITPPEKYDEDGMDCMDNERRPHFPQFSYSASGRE
Description: (§1) Testing of the compounds was performed using an AKT Kinase Assay:
(§2) Activated AKT isoforms 1, 2 and 3 were assayed utilising a 5′ FAM Crosstide (Seq. GRPRTSSFAEG-OH). The extent of kinase phosphorylation was determined by fluorescent polarisation using IMAP progressive binding reagent, which introduces binding beads which allow the reagent to specifically bind to phosphate residues via covalent co-ordination complex bonds.
(§3) iMAP binding solution stops Crosstide/kinase interaction and specifically binds phosphorylated substrates. The degree of phosphorylation is determined by fluorescent polarisation (excitation 485 nm; emission 528 nm) or the reduction in speed of rotation of the excited substrate.
(§4) The following materials were used in the assay: • a) Activated AKT isoforms (SignalChem.) dissolved in Complete Reaction buffer at a predetermined concentration selected so that the assay was carried out in the linear range. • b) AKT substrate peptide: FAM Crosstide (R7110) Molecular Devices, diluted in complete reaction buffer. • c) iMAP Progressive Screening Express Kit (R8127) Molecular Devices • d) Complete Reaction Buffer containing 0.1% BSA, 10 mM Tris-HCl, 10 mM MgCl2, 0.05% NaN3 and 0.01% phosphate free BSA, 1 mM DTT • e) Progressive Binding Solution containing 75% Buffer A, 25% Buffer B and low volume Binding Reagent which contains the binding entity for the assay • f) ATP diluted in complete reaction buffer • g) Black polystyrene 384 well assay plates (Nunc). • h) Biotek Synergy 4 Hybrid Plate reader.
(§5) 5 μl of test compound was dissolved in DMSO (Sigma Aldrich) and serially diluted in complete reaction buffer to give a fourteen point half log dose response and plated into 384 well black plates. The compound was incubated at room temperature with activated AKT isoform (5 μl) at the predetermined concentration, for 45 min.
(§6) 2.5 μl of ATP solution mixed with 2.5 μl of AKT substrate peptide (FAM Crosstide (R7110) Molecular Devices) were dispensed into each well and the plate centrifuged at 1000 rpm for 20 seconds to ensure homogenous mixing of reagents. The reaction mix was incubated in the dark for 1 h at room temperature.
(§7) The kinase reaction was stopped by the addition of Progressive Binding Solution and the mixture allowed to equilibrate for 1 h in the dark, at room temperature.
(§8) The fluorescent polarisation generated in each well was determined using a […] Synergy 4 Hybrid plate reader. In brief, each reaction solution was excited at 485 nm with the emission measured at 528 nm in both the parallel and perpendicular pathway.
(§9) The polarisation value generated in each well was calculated by Gen5 software (Biotek) and the % inhibition of kinase activity compared to vehicle control was calculated via GraphPad Prism. IC50 values for each compound were calculated by non-linear regression analysis using Prism software.
(§10) All plates were internally controlled by two methods. Firstly, by calculating the signal:noise ratio; based on kinase polarisation without inhibitor and polarisation generated by complete reaction buffer in the absence of activated kinase. Secondly by determining IC50 values generated by known inhibitors of the AKT isoforms.
(§11) The data was analysed using GraphPad Prism, with IC50 values generated using non-linear regression of the data set.

AKT1 = target: T2, AKT1 (Homo sapiens, UniProt P31749); assay: AKT Kinase Assay (IMAP fluorescent polarisation), AKT1 isoform; type: biochemical; details: for IC50: activated AKT1, FAM Crosstide substrate; for potency against AKT1 compared with the comparator compound: compared with the non-hydroxylated Compound A, F or L
T2 construct: purchased SignalChem
T2 sequence (P31749 whole entry, canonical isoform): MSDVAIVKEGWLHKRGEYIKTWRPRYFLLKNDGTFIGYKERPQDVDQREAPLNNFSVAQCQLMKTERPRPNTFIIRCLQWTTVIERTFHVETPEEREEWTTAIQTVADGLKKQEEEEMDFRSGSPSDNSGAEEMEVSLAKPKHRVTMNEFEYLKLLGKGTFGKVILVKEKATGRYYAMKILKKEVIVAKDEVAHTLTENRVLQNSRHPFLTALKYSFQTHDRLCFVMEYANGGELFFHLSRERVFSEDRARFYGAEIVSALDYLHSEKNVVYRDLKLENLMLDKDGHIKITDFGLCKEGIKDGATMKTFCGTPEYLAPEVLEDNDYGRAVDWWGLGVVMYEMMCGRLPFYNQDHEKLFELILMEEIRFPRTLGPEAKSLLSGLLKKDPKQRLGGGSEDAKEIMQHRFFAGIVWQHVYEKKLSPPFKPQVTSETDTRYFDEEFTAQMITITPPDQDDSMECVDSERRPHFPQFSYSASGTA
Description: as §1, §2, §3, §4, §5, §6, §7, §8, §9, §10, §11

AKT2 = target: T3, AKT2 (Homo sapiens, UniProt P31751); assay: AKT Kinase Assay (IMAP fluorescent polarisation), AKT2 isoform; type: biochemical; details: for IC50: activated AKT2, FAM Crosstide substrate; for potency against AKT2 compared with the comparator compound: compared with the non-hydroxylated Compound A, F or L
T3 construct: purchased SignalChem
T3 sequence (P31751 whole entry, canonical isoform): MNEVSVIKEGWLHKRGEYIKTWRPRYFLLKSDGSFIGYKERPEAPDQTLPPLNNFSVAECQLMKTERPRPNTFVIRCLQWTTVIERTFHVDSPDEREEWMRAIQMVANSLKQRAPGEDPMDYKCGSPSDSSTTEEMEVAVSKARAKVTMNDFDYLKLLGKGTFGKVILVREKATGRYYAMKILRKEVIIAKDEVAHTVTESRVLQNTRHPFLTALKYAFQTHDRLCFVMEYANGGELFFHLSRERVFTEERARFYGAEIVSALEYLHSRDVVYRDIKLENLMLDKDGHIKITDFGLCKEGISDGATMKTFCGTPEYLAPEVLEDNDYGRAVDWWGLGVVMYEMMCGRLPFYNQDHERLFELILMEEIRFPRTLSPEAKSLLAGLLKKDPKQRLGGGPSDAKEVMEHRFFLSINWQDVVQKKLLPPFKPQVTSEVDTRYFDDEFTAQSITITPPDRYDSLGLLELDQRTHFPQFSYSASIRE
Description: as §1, §2, §3, §4, §5, §6, §7, §8, §9, §10, §11

Structure (SMILES) | IC50 [1] | IC50 (AKT3) | IC50 (AKT1) | IC50 (AKT2) | potency against AKT2 compared with the comparator compound (AKT2) | potency against AKT3 compared with the comparator compound (AKT3) | potency against AKT1 compared with the comparator compound (AKT1) | selectivity for AKT2 over AKT1 and AKT3 compared with compound A (AKT2; compared with compound A)
N[C@]1(c2ccc(-c3oc4ncn(CC(F)(F)F)c(=O)c4c3-c3ccccc3)cc2)C[C@@H](O)C1 [Compound 2, 6-(4-((1r,3r)-1-Amino-3-hydroxycyclobutyl)phenyl)-5-phenyl-3-(2,2,2-trifluoroethyl)furo[2,3-d]pyrimidin-4(3H)-one. HCl] | ≤ 500 nM | > 6 µM | > 1500 nM | ≤ 20 nM | improved potency | – | – | –
C[C@]1(O)C[C@](N)(c2ccc(-c3sc4ncn(CC(F)(F)F)c(=O)c4c3-c3ccccc3)cc2)C1 [Compound 8, 6-(4-((1s,3s)-1-Amino-3-hydroxy-3-methylcyclobutyl)phenyl)-5-phenyl-3-(2,2,2-trifluoroethyl)thieno[2,3-d]pyrimidin-4(3H)-one.HCl] | – | 1 to 6 µM | ≤ 300 nM | 20 to 100 nM | improved potency | improved potency | improved potency | –
N[C@]1(c2ccc(-c3sc4ncn(CC(F)(F)F)c(=O)c4c3-c3ccccc3)cc2)C[C@H](O)C1 [Compound 9, 6-(4-((1s,3s)-1-Amino-3-hydroxycyclobutyl)phenyl)-5-phenyl-3-(2,2,2-trifluoroethyl)thieno[2,3-d]pyrimidin-4(3H)-one.HCl] | – | 1 to 6 µM | ≤ 300 nM | ≤ 20 nM | improved potency | improved potency | improved potency | –
Cn1c(-c2ccc([C@]3(N)C[C@@](C)(O)C3)cc2)c(-c2ccccc2)c2c(=O)n(CC(F)(F)F)cnc21 [Compound 10, 6-(4-((1s,3s)-1-Amino-3-hydroxy-3-methylcyclobutyl)phenyl)-7-methyl-5-phenyl-3-(2,2,2-trifluoroethyl)-3H-pyrrolo[2,3-d]pyrimidin-4(7H)-one.HCl] | – | 1 to 6 µM | 300 to 1500 nM | ≤ 20 nM | improved potency | improved potency | – | –
Cn1c(-c2ccc([C@]3(N)C[C@H](O)C3)cc2)c(-c2ccccc2)c2c(=O)n(CC(F)(F)F)cnc21 [Compound 11, 6-(4-((1r,3r)-1-Amino-3-hydroxycyclobutyl)phenyl)-7-methyl-5-phenyl-3-(2,2,2-trifluoroethyl)-3H-pyrrolo[2,3-d]pyrimidin-4(7H)-one.HCl] | – | > 6 µM | > 1500 nM | 20 to 100 nM | – | – | – | –
N[C@]1(c2ccc(-c3sc4ncn(CC(F)(F)F)c(=O)c4c3-c3ccccc3)cc2)C[C@@H](O)C1 [Compound 12, 6-(4-((1r,3r)-1-Amino-3-hydroxycyclobutyl)phenyl)-5-phenyl-3-(2,2,2-trifluoroethyl)thieno[2,3-d]pyrimidin-4(3H)-one.HCl] | – | 1 to 6 µM | 300 to 1500 nM | 20 to 100 nM | improved potency | improved potency | – | –
C[C@]1(O)C[C@@](N)(c2ccc(-c3oc4ncn(CC(F)(F)F)c(=O)c4c3-c3ccncc3)cc2)C1 [Compound 13, 6-(4-((1r,3r)-1-Amino-3-hydroxy-3-methylcyclobutyl)phenyl)-5-(pyridin-4-yl)-3-(2,2,2-trifluoroethyl)furo[2,3-d]pyrimidin-4(3H)-one.TFA] | – | > 6 µM | > 1500 nM | ≤ 20 nM | improved potency | – | – | greater selectivity
C[C@]1(O)C[C@@](N)(c2ccc(-c3oc4ncn(CC(F)(F)F)c(=O)c4c3-c3ccccn3)cc2)C1 [Compound 14, 6-(4-((1r,3r)-1-Amino-3-hydroxy-3-methylcyclobutyl)phenyl)-5-(pyridin-2-yl)-3-(2,2,2-trifluoroethyl)furo[2,3-d]pyrimidin-4(3H)-one.HCl] | – | > 6 µM | > 1500 nM | > 100 nM | – | – | – | –
Cn1c(-c2ccc([C@]3(N)C[C@](C)(O)C3)cc2)c(-c2ccccn2)c2c(=O)n(CC(F)(F)F)cnc21 [Compound 15, 6-(4-((1r,3r)-1-Amino-3-hydroxy-3-methylcyclobutyl)phenyl)-7-methyl-5-(pyridin-2-yl)-3-(2,2,2-trifluoroethyl)-3H-pyrrolo[2,3-d]pyrimidin-4(7H)-one.TFA] | – | > 6 µM | > 1500 nM | > 100 nM | – | – | – | –
Cn1c(-c2ccc([C@]3(N)C[C@](C)(O)C3)cc2)c(-c2cccnc2)c2c(=O)n(CC(F)(F)F)cnc21 [Compound 16, 6-(4-((1r,3r)-1-Amino-3-hydroxy-3-methylcyclobutyl)phenyl)-7-methyl-5-(pyridin-3-yl)-3-(2,2,2-trifluoroethyl)-3H-pyrrolo[2,3-d]pyrimidin-4(7H)-one.TFA] | – | > 6 µM | > 1500 nM | > 100 nM | – | – | – | –
Cn1c(-c2ccc([C@]3(N)C[C@](C)(O)C3)cc2)c(-c2ccncc2)c2c(=O)n(CC(F)(F)F)cnc21 [Compound 17, 6-(4-((1r,3r)-1-Amino-3-hydroxy-3-methylcyclobutyl)phenyl)-7-methyl-5-(pyridin-4-yl)-3-(2,2,2-trifluoroethyl)-3H-pyrrolo[2,3-d]pyrimidin-4(7H)-one.HCl] | – | > 6 µM | > 1500 nM | > 100 nM | – | – | – | –
Cn1c(-c2ccc([C@]3(N)C[C@@](C)(O)C3)cc2)c(-c2ccccn2)c2c(=O)n(CC(F)(F)F)cnc21 [Compound 18, 6-(4-((1 s,3s)-1-Amino-3-hydroxy-3-methylcyclobutyl)phenyl)-7-methyl-5-(pyridin-2-yl)-3-(2,2,2-trifluoroethyl)-3H-pyrrolo[2,3-d]pyrimidin-4(7H)-one.HCl] | – | > 6 µM | > 1500 nM | > 100 nM | – | – | – | –
C[C@]1(O)C[C@](N)(c2ccc(-c3sc4ncn(CC(F)(F)F)c(=O)c4c3-c3ccccn3)cc2)C1 [Compound 19, 6-(4-((1s,3s)-1-Amino-3-hydroxy-3-methylcyclobutyl)phenyl)-5-(pyridin-2-yl)-3-(2,2,2-trifluoroethyl)thieno[2,3-d]pyrimidin-4(3H)-one.HCl] | – | > 6 µM | > 1500 nM | > 100 nM | – | – | – | –
C[C@]1(O)C[C@@](N)(c2ccc(-c3sc4ncn(CC(F)(F)F)c(=O)c4c3-c3ccccn3)cc2)C1 [Compound 20, 6-(4-((1r,3r)-1-Amino-3-hydroxy-3-methylcyclobutyl)phenyl)-5-(pyridin-2-yl)-3-(2,2,2-trifluoroethyl)thieno[2,3-d]pyrimidin-4(3H)-one.HCl] | – | > 6 µM | > 1500 nM | > 100 nM | – | – | – | –
NC1(c2ccc(-c3sc4ncn(CC(F)(F)F)c(=O)c4c3-c3ccccc3)cc2)CCC1 [Compound F, reference compound] | – | > 6 µM | 300 to 1500 nM | > 100 nM | – | – | – | –
Cn1c(-c2ccc(C3(N)CCC3)cc2)c(-c2ccccc2)c2c(=O)n(CC(F)(F)F)cnc21 [Compound L, reference compound] | – | > 6 µM | 300 to 1500 nM | 20 to 100 nM | – | – | – | –
